Columns and labels:
[1] = target: T1, HCV polymerase (NS5B) type 1a (Hepatitis C virus genotype 1a, UniProt P26664); assay: Assay of enzyme (HCV polymerase) inhibitory activity, type 1a enzyme; assay type: biochemical, HCV type 1a (cloned from the blood of patients); conditions: HCV polymerase inhibitory activity IC50, 1a, type 1a enzyme
T1 construct: made in house; host or cells: Escherichia coli (by the 'similar method' of the 1b enzyme)
Summary of the method: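 IC50 values derive from radioactivity of newly synthesized RNA with versus without test compound. The enzyme was C-terminally truncated type 1a NS5B, 1.5 μg/ml, run 60 min at 25° C with 3H-UTP-labelled nucleotides.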

[2] = target: T2, HCV polymerase (NS5B) type 1b (Hepatitis C virus genotype 1b, UniProt P26663); assay: Assay of enzyme (HCV polymerase) inhibitory activity, type 1b enzyme; assay type: biochemical, HCV BK strain (type 1b); conditions: HCV polymerase inhibitory activity IC50, 1b, type 1b enzyme
T2 construct: a region encoding NS5B (J Virol 1991 March, 65(3), 1105-13, 544 amino acids after deletion of 47 amino acids on the C-terminal); 6xHis (C); made in house; host or cells: Escherichia coli
Summary of the method: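 Polymerase activity was followed as radiolabelled UTP incorporation by E. coli-expressed, His-tagged NS5B of HCV type 1b lacking its last 47 residues. Conditions: 2 μM UTP, 50 μM other NTPs, Mg2+ buffer at pH 7.5, 25 °C for 60 min. Inhibition relative to compound-free reactions gave IC50.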

| Structure (SMILES) | IC50 [1] | IC50 [2] |
| --- | --- | --- |
| CCC(F)(F)c1ccc(CNC(=O)[C@H]2CN(c3cnc4cnc(C)nc4n3)CCN2S(=O)(=O)c2ccc(OC(F)(F)F)cc2)cc1 [Example 692, (R)-4-(2-methyl-pteridin-7-yl)-1-(4-trifluoromethoxy-benzenesulfonyl)-piperazine-2-carboxylic acid 4-(1,1-difluoro-propyl)-benzylamide] | < 100 nM | < 100 nM |
| CCOC(=O)c1ccc2nc(N3CCN(S(=O)(=O)c4ccc(OC(F)(F)F)cc4)[C@@H](C(=O)NCc4ccc(C(F)(F)CC)cc4)C3)cnc2c1 [Example 693, 2-[(R)-3-[4-(1,1-difluoro-propyl)-benzylcarbamoyl]-4-(4-trifluoromethoxy-benzenesulfonyl)-piperazin-1-yl]-quinoxaline-6-carboxylic acid ethyl ester] | > 1000 nM | 100 to 1000 nM |
| CCC(F)(F)c1ccc(CNC(=O)[C@H]2CN(c3nc4cnncc4s3)CCN2S(=O)(=O)c2ccc(OC(F)(F)F)cc2)cc1 [Example 694, (R)-4-thiazolo[4,5-d]pyridazin-2-yl-1-(4-trifluoromethoxy-benzenesulfonyl)-piperazine-2-carboxylic acid 4-(1,1-difluoro-propyl)-benzylamide] | < 100 nM | < 100 nM |
| CCC(F)(F)c1ccc(CNC(=O)[C@H]2CN(c3cnc4cncnc4n3)CCN2S(=O)(=O)c2ccc(C(C)(C)C)cc2)cc1 [Example 695, (R)-1-(4-tert-butyl-benzenesulfonyl)-4-pteridin-7-yl-piperazine-2-carboxylic acid 4-(1,1-difluoro-propyl)-benzylamide] | < 100 nM | < 100 nM |
| CCC(F)(F)c1ccc(CNC(=O)[C@H]2CN(c3cnc4cncnc4n3)CCN2S(=O)(=O)c2ccc(-c3ccccc3)cc2)cc1 [Example 696, (R)-1-(biphenyl-4-sulfonyl)-4-pteridin-7-yl-piperazine-2-carboxylic acid 4-(1,1-difluoro-propyl)-benzylamide] | < 100 nM | < 100 nM |
| CCC(F)(F)c1ccc(CNC(=O)[C@H]2CN(c3cnc4cncnc4n3)CCN2S(=O)(=O)c2ccc(Cl)cc2)cc1 [Example 697, (R)-1-(4-chloro-benzenesulfonyl)-4-pteridin-7-yl-piperazine-2-carboxylic acid 4-(1,1-difluoro-propyl)-benzylamide] | < 100 nM | < 100 nM |
| CCC(F)(F)c1ccc(CNC(=O)[C@H]2CN(c3cnc4cncnc4n3)CCN2S(=O)(=O)c2ccc([N+](=O)[O-])cc2)cc1 [Example 698, (R)-1-(4-nitro-benzenesulfonyl)-4-pteridin-7-yl-piperazine-2-carboxylic acid 4-(1,1-difluoro-propyl)-benzylamide] | < 100 nM | < 100 nM |
| CCCc1ccc(CNC(=O)[C@H]2CN(c3cnc(C(=O)O)cn3)CCN2S(=O)(=O)c2ccc(Br)s2)cc1 [Example 699, (R)-4-(5-bromo-thiophene-2-sulfonyl)-3-(4-propyl-benzylcarbamoyl)-3,4,5,6-tetrahydro-2H-[1,2′]bipyrazinyl-5′-carboxylic acid] | < 100 nM | < 100 nM |
| CCCc1ccc(CNC(=O)[C@H]2CN(c3cnc(C(=O)O)cn3)CCN2S(=O)(=O)c2ccc(C(C)(C)C)cc2)cc1 [Example 700, (R)-4-(4-tert-butyl-benzenesulfonyl)-3-(4-propyl-benzylcarbamoyl)-3,4,5,6-tetrahydro-2H-[1,2′]bipyrazinyl-5′-carboxylic acid] | < 100 nM | < 100 nM |
| CCCc1ccc(CNC(=O)[C@H]2CN(c3cnc(C(=O)O)cn3)CCN2S(=O)(=O)c2ccc(-c3ccccc3)cc2)cc1 [Example 701, (R)-4-(biphenyl-4-sulfonyl)-3-(4-propyl-benzylcarbamoyl)-3,4,5,6-tetrahydro-2H-[1,2′]bipyrazinyl-5′-carboxylic acid] | < 100 nM | < 100 nM |
| CC(=O)N1CCN(S(=O)(=O)c2ccc(OC(F)(F)F)cc2)[C@@H](C(=O)NCc2ccc(CCCO)cc2)C1 [Example 702, (R)-4-acetyl-1-(4-trifluoromethoxy-benzenesulfonyl)-piperazine-2-carboxylic acid 4-(3-hydroxy-propyl)-benzylamide] | > 1000 nM | > 1000 nM |
| CCCn1cc(CNC(=O)[C@H]2CN(C(C)=O)CCN2S(=O)(=O)c2ccc(OC(F)(F)F)cc2)cn1 [Example 703, (R)-4-acetyl-1-(4-trifluoromethoxy-benzenesulfonyl)-piperazine-2-carboxylic acid (1-propyl-1H-pyrazol-4-ylmethyl)-amide] | > 1000 nM | > 1000 nM |
| CCC(F)(F)c1ccc(CNC(=O)[C@H]2CN(C3=NC(=O)CS3)CCN2S(=O)(=O)c2ccc(OC(F)(F)F)cc2)cc1 [Example 704, (R)-4-(4-oxo-4,5-dihydro-thiazol-2-yl)-1-(4-trifluoromethoxy-benzenesulfonyl)-piperazine-2-carboxylic acid 4-(1,1-difluoro-propyl)-benzylamide] | < 100 nM | < 100 nM |
| CCC(F)(F)c1ccc(CNC(=O)[C@H]2CN(C(=O)N3CC(C(=O)O)C3)CCN2S(=O)(=O)c2ccc(OC(F)(F)F)cc2)cc1 [Example 705, 1-[(R)-3-[4-(1,1-difluoro-propyl)-benzylcarbamoyl]-4-(4-trifluoromethoxy-benzenesulfonyl)-piperazine-1-carbonyl]-azetidine-3-carboxylic acid] | > 1000 nM | > 1000 nM |
| CCC(F)(F)c1ccc(CNC(=O)[C@H]2CN(C(=O)N3CCC(C(=O)O)CC3)CCN2S(=O)(=O)c2ccc(OC(F)(F)F)cc2)cc1 [Example 706, 1-[(R)-3-[4-(1,1-difluoro-propyl)-benzylcarbamoyl]-4-(4-trifluoromethoxy-benzenesulfonyl)-piperazine-1-carbonyl]-piperidine-4-carboxylic acid] | > 1000 nM | > 1000 nM |
| CCC(F)(F)c1ccc(CNC(=O)[C@H]2CN(c3cnc4ncncc4n3)CCN2S(=O)(=O)c2ccc(OC(F)(F)F)cc2)cc1 [Example 707, (R)-4-pteridin-6-yl-1-(4-trifluoromethoxy-benzenesulfonyl)-piperazine-2-carboxylic acid 4-(1,1-difluoro-propyl)-benzylamide] | < 100 nM | < 100 nM |
| CCC(F)(F)c1ccc(CNC(=O)[C@H]2CN(c3cnc4cncnc4n3)CCN2S(=O)(=O)c2ccc(I)cc2)cc1 [Example 708, (R)-1-(4-iodo-benzenesulfonyl)-4-pteridin-7-yl-piperazine-2-carboxylic acid 4-(1,1-difluoro-propyl)-benzylamide] | < 100 nM | < 100 nM |
| CCC(F)(F)c1ccc(CNC(=O)[C@H]2CN(c3cnc4cncnc4n3)CCN2S(=O)(=O)c2ccc(-c3cccs3)cc2)cc1 [Example 709, (R)-4-pteridin-7-yl-1-(4-thiophen-2-yl-benzenesulfonyl)-piperazine-2-carboxylic acid 4-(1,1-difluoro-propyl)-benzylamide] | < 100 nM | < 100 nM |
| CCOC(=O)c1ccc2ncc(N3CCN(S(=O)(=O)c4ccc(OC(F)(F)F)cc4)[C@@H](C(=O)NCc4ccc(C(F)(F)CC)cc4)C3)nc2c1 [Example 710, 3-[(R)-3-[4-(1,1-difluoro-propyl)-benzylcarbamoyl]-4-(4-trifluoromethoxy-benzenesulfonyl)-piperazin-1-yl]-quinoxaline-6-carboxylic acid ethyl ester] | 100 to 1000 nM | 100 to 1000 nM |
| CCC(F)(F)c1ccc(CNC(=O)[C@H]2CN(c3cnc4ccc(C(=O)O)cc4n3)CCN2S(=O)(=O)c2ccc(OC(F)(F)F)cc2)cc1 [Example 711, 3-[(R)-3-[4-(1,1-difluoro-propyl)-benzylcarbamoyl]-4-(4-trifluoromethoxy-benzenesulfonyl)-piperazin-1-yl]-quinoxaline-6-carboxylic acid] | 100 to 1000 nM | < 100 nM |
| CCC(F)(F)c1ccc(CNC(=O)[C@H]2CN(c3cnc4cc(C(=O)O)ccc4n3)CCN2S(=O)(=O)c2ccc(OC(F)(F)F)cc2)cc1 [Example 712, 2-[(R)-3-[4-(1,1-difluoro-propyl)-benzylcarbamoyl]-4-(4-trifluoromethoxy-benzenesulfonyl)-piperazin-1-yl]-quinoxaline-6-carboxylic acid] | < 100 nM | < 100 nM |
| CCC(F)(F)c1ccc(CNC(=O)[C@H]2CN(c3cnc4cnccc4n3)CCN2S(=O)(=O)c2ccc(Cl)cc2)cc1 [Example 713, (R)-1-(4-chloro-benzenesulfonyl)-4-pyrido[3,4-b]pyrazin-2-yl-piperazine-2-carboxylic acid 4-(1,1-difluoro-propyl)-benzylamide] | < 100 nM | < 100 nM |
| CCC(F)(F)c1ccc(CNC(=O)[C@H]2CN(c3cnc4cnccc4n3)CCN2S(=O)(=O)c2ccc(C(C)(C)C)cc2)cc1 [Example 714, (R)-1-(4-tert-butyl-benzenesulfonyl)-4-pyrido[3,4-b]pyrazin-2-yl-piperazine-2-carboxylic acid 4-(1,1-difluoro-propyl)-benzylamide] | < 100 nM | < 100 nM |
| CCC(F)(F)c1ccc(CNC(=O)[C@H]2CN(c3nc4ccncc4s3)CCN2S(=O)(=O)c2ccc(OC(F)(F)F)cc2)cc1 [Example 715, (R)-4-thiazolo[5,4-c]pyridin-2-yl-1-(4-trifluoromethoxy-benzenesulfonyl)-piperazine-2-carboxylic acid 4-(1,1-difluoro-propyl)-benzylamide] | < 100 nM | < 100 nM |
